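Following 48 hours of exposure in 96-well plates, responses at five concentrations were used to interpolate endpoints linearly. At the GI50, growth is halved.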 The source made the active and inactive calls. No stated cut-off is given here; in the data, active = GI50 up to about 1.1 µM and inactive = higher.

Some test systems named below: A549; ACHN; CCRF-CEM; COLO 205; HCC 2998; Hs-578T; MCF7; MDA-MB-435; NCI-H226; OVCAR-4; OVCAR-5; SF-268; SN12C; SW-620; U-251; UACC-62; UO-31; A498; HL-60; LOX IMVI.
Holding throughout (experiment): NCI-60 cell line screen, 48 h

With `COc1cc(Cc2nccc3cc(OC)c(OC)cc23)c(/N=N/N(C)C)cc1OC`, the GI50 in the test on A549 was 23.4 µM (inactive); in the test with ACHN, 15.1 µM (inactive); in the test with CCRF-CEM, 3.18 µM (inactive); with COLO 205, 14.4 µM (inactive); in the test with HCC 2998 it was 14.6 µM (inactive); with Hs-578T, 18.4 µM (inactive). Also, the GI50 with MCF7 is 14.6 µM (inactive); with MDA-MB-435, 18.5 µM (inactive); in the test with NCI-H226, 20.4 µM (inactive); in the test on OVCAR-4 it was 20.5 µM (inactive); with OVCAR-5 it was 20.5 µM (inactive); with SF-268 it was 22.1 µM (inactive). The GI50 in the test on SN12C is 14.3 µM (inactive); in the test with SW-620 it was 7.94 µM (inactive); in the test with U-251, 19.1 µM (inactive); in the test on UACC-62, 13.2 µM (inactive); with UO-31 it was 10 µM (inactive).
Turning to `O=C(O)c1cc2ccccc2c(Cc2c(O)c(C(=O)O)cc3ccccc23)c1O` [PAMOIC ACID], the GI50 with A498, in the test with A549, with ACHN, with CCRF-CEM, in the test with HCC 2998 and with HL-60 was > 100 µM (inactive) in each case. Also, the GI50 with Hs-578T, with LOX IMVI, with MDA-MB-435, in the test with NCI-H226, in the test on OVCAR-4 and in the test on OVCAR-5 was > 100 µM (inactive) throughout. Moreover, the GI50 with SF-268, in the test with SN12C, in the test with SW-620, with U-251, in the test on UACC-62 and with UO-31 was > 100 µM (inactive) throughout.
With `CC(C)(C)c1ccc(O)c(C(O)c2ccccn2)c1` (configuration not stated), the GI50 was 98.2 µM (inactive) in the test with A549; > 100 µM (inactive) in the test on ACHN; 38.2 µM (inactive) in the test on CCRF-CEM; > 100 µM (inactive) with COLO 205; 34.4 µM (inactive) in the test with HCC 2998; 45.1 µM (inactive) in the test on HL-60. The GI50 in the test with Hs-578T is 91.2 µM (inactive); in the test with LOX IMVI, 54.8 µM (inactive); in the test on MCF7 it was 77.8 µM (inactive); in the test with MDA-MB-435, > 100 µM (inactive); in the test with NCI-H226 it was 85.1 µM (inactive); in the test on OVCAR-5, 31.5 µM (inactive). Further, the GI50 in the test with SF-268 is > 100 µM (inactive); with SN12C, 74 µM (inactive); in the test on SW-620, > 100 µM (inactive); in the test on U-251 it was 46.1 µM (inactive); with UACC-62, 2.24 µM (inactive); in the test with UO-31, 39.7 µM (inactive).
Regarding `Cc1cc(O)no1` [HYMEXAZOL], the GI50 in the test on A549 is > 100 µM (inactive); in the test on ACHN, 18.9 µM (inactive); in the test on COLO 205, > 100 µM (inactive); in the test with HCC 2998 it was > 100 µM (inactive); in the test on Hs-578T, > 100 µM (inactive); in the test with LOX IMVI, > 100 µM (inactive). Moreover, the GI50 in the test on MCF7, with MDA-MB-435, in the test with NCI-H226, with OVCAR-4, in the test on OVCAR-5 and in the test on SF-268 was > 100 µM (inactive) throughout. Also, the GI50 in the test with SW-620, with U-251, in the test with UACC-62 and in the test on UO-31 was > 100 µM (inactive) throughout.
With `COC(=O)C(C)(Cc1ccc2c(c1)nnn2C(C)=O)NC(C)=O` (configuration not stated), the GI50 in the test on A549, in the test with ACHN, with CCRF-CEM, in the test with COLO 205, in the test with HCC 2998 and with HL-60 was > 100 µM (inactive) each time. Further, the GI50 with Hs-578T, with LOX IMVI, in the test with MCF7, in the test with MDA-MB-435, in the test with NCI-H226 and with OVCAR-4 was > 100 µM (inactive) each time. Besides, the GI50 with OVCAR-5, in the test with SF-268, in the test on SW-620, in the test on UACC-62 and in the test with UO-31 was > 100 µM (inactive) throughout.
Consider `S=C1CC(c2ccccc2)Sc2cc(Cl)ccc2N1` (configuration not stated), for which the GI50 with A549 was 5.68 µM (inactive); in the test on ACHN, 9.46 µM (inactive); in the test on CCRF-CEM, 1.36 µM (inactive); in the test with COLO 205, 5.02 µM (inactive); with HL-60, 0.726 µM (active); in the test on Hs-578T it was 8.91 µM (inactive). The GI50 was 4.09 µM (inactive) in the test with LOX IMVI; 4.34 µM (inactive) with MCF7; 0.723 µM (active) in the test with MDA-MB-435; 14.2 µM (inactive) in the test with NCI-H226; 13.2 µM (inactive) in the test with OVCAR-4; > 100 µM (inactive) in the test on OVCAR-5. The GI50 is 6.84 µM (inactive) with SF-268; 8.77 µM (inactive) in the test with SN12C; 4.26 µM (inactive) in the test with U-251; 5.56 µM (inactive) in the test with UACC-62; 44.5 µM (inactive) in the test with UO-31.
Regarding `O=C1/C(=C/c2ccc(OC(=O)c3ccccc3)cc2)CCC/C1=C\c1ccc(OC(=O)c2ccccc2)cc1`, the GI50 with A549, in the test on ACHN, in the test on CCRF-CEM, in the test on COLO 205, in the test on HCC 2998 and with HL-60 was > 100 µM (inactive) in each case. Moreover, the GI50 in the test on Hs-578T, in the test with LOX IMVI, in the test on MCF7, with MDA-MB-435, with OVCAR-4 and with OVCAR-5 was > 100 µM (inactive) throughout. The GI50 with SF-268, in the test with SN12C, with SW-620, in the test with U-251, with UACC-62 and in the test on UO-31 was > 100 µM (inactive) throughout.
Turning to `COc1ccc(C(OCC2OC(n3ccc(NC(=O)c4ccccc4)nc3=O)CC2OP2(=S)SCCS2)(c2ccccc2)c2ccc(OC)cc2)cc1` (configuration not stated), the GI50 with A549 was 56.2 µM (inactive); with ACHN, 18.6 µM (inactive); with COLO 205, > 10 µM (inactive); in the test with Hs-578T, 24.1 µM (inactive); in the test on LOX IMVI, 14.9 µM (inactive); in the test with MCF7, 37.1 µM (inactive). Further, the GI50 is 30.1 µM (inactive) in the test with MDA-MB-435; 34.4 µM (inactive) with NCI-H226; 30.1 µM (inactive) in the test on OVCAR-4; 36.8 µM (inactive) in the test on OVCAR-5; 21.2 µM (inactive) in the test on SF-268; 21.1 µM (inactive) in the test on SN12C. The GI50 with SW-620 is 18.4 µM (inactive); in the test on U-251, 28 µM (inactive); with UACC-62, 16.7 µM (inactive); in the test with UO-31, > 100 µM (inactive).

These data come from ChEMBL document CHEMBL1201862, “PubChem BioAssay data set” (2004).
